Results reported in patent publication US8324457B2, “Soybean event 3560.4.3.5 and compositions and methods for the identification and/or detection thereof” (Pioneer Hi-Bred International, Inc., priority 2006, dated 2012).
Where two headings read alike, the source gives them in different places.

Experiments:
[1] = system: seedlings that possessed the 3560.4.3.5 event; experiment: Chlorsulfuron herbicide seedling test on germination paper; format: in vivo, Glycine max; details: germination paper saturated with 20 ml/l of a 66.7 mg/l chlorsulfuron stock, pH 7.5; observed 10 days after initial treatment
[2] = system: seedlings that lacked the event; experiment: as above; format: in vivo, Glycine max; details: germination paper saturated with 20 ml/l of a 66.7 mg/l chlorsulfuron stock, pH 7.5; observed 10 days after initial treatment
[3] = system: transgenic event 3560.4.3.5 soybean; experiment: Greenhouse herbicide tolerance of T0 and T1 plants, visual rating 10 days after spray; format: in vivo, Glycine max
From the text: Selected events were advanced at the T1 generation for herbicide tolerance confirmation in greenhouses. Plants were sprayed at the V3 growth stage with either 1.68 kg ae ha^−1 glyphosate, 60 g ai ha^−1 thifensulfuron methyl(methyl 3-[[[[(4-methoxy-6-methyl-1,3,5-triazin-2-yl)amino]carbonyl]amino]sulfonyl]-2-thiophenecarboxylate), or a sequential […] […] […] Since the T1 events were segregating, only the non-susceptible plants were scored, and an average rating of tolerant plants within each event was calculated.
(§1) T0 3560.4.3.5 soybean were evaluated for glyphosate tolerance.
The 3560.4.3.5 event was advanced to the T1 generation in a greenhouse to confirm herbicide tolerance. The 3560.4.3.5 event had tolerance after application of 1.68 kg ae ha^−1 glyphosate, after application of 60.0 g ai ha^−1 thifensulfuron methyl, and after a sequential application of 70 g ai ha^−1 thifensulfuronmethyl at V3, […]

3560.4.3.5 soybean [4] = experiment: ALS inhibitor herbicide tolerance field trials, crop response rating; design: species or system Glycine max; details: in vivo
From the text: ALS inhibitor herbicide tolerance of the gm-hra gene was compared to sulfonylurea tolerant soybeans (STS®) by growing T4 plants of event 3560.4.3.5 and a STS® cultivar. […] Spray treatments were applied at the V3 growth stage and consisted of one of the following: an unsprayed control, 8.8 g ai ha^−1 rimsulfuron (N-[[(4,6-dimethoxy-2-pyrimidinyl)amino]carbonyl]-3-(ethylsulfonyl)-2-pyridinesulfonamide), 8.8 g ai ha^−1 tribenuron methyl (methyl 2-[[[[(4-methoxy-6-methyl-1,3,5-triazin-2-yl)methylamino]carbonyl]amino]sulfonyl]benzoate), or 30.0 g ai ha^−1 chlorimuron ethyl (ethyl 2-[[[[(4-chloro-6-methoxypyrimidin-2-yl)amino]carbonyl]amino]sulfonyl]benzoate)+9.67 g ai ha^−1 thifensulfuron methyl. […] Plots were evaluated for crop response at 7 DAT and 14 DAT, and assigned a visual response score from 0% to 100% response. Crop response data were analyzed using the mixed model ANOVA procedure of SAS.
ALS inhibitor herbicide tolerance trials were completed at two separate locations. Plants from the T5 generation of event 3560.4.3.5 and a STS® cultivar were grown in a RCB design in a split plot arrangement with three replications of paired 2.4 m rows (76.2 cm row spacing). […] Crop response data were analyzed using the mixed model ANOVA procedure of SAS. […]

[5] = system: untransformed parental line; experiment: Greenhouse glyphosate spray of the control line, visual rating; format: in vivo, Glycine max; details: either glyphosate application rate of the T0 test; 1 to 9 scale, 1 = dead plant
Procedure: Plants were rated using a 1 to 9 scale ten days after treatment (DAT), where 1=dead plant to 9=no observed spray response.
as §1

3560.4.3.5 soybean [6] = experiment: Field glyphosate tolerance trials, T3 and T4 plants, visual rating; format: in vivo, Glycine max
Procedure: (§2) The 3560.4.3.5 soybean event was evaluatead for glyphosate tolerance. […] Plots were evaluated for crop response at 7 and 14 days after treatment (DAT), and rated using a 1-9 score. Crop response data were analyzed using the general linear model (GLM) and mixed model analysis of variance (ANOVA) procedures of SAS. (The SAS System is a registered trademark of SAS Institute, Inc., Cary, N.C., USA)
Selected T4 lines were tested for glyphosate tolerance. This experiment was a RCB design in a split plot arrangement with two replications of individual 1.2 m rows (76.2 cm row spacing). At the V3 growth stage, 6.72 kg ae ha^−1 glyphosate was applied to one block, while another was unsprayed for use as a control. The third block received a sequential application of 6.72 kg ae ha^−1 glyphosate at V3 followed by 6.72 kg ae ha^−1 glyphosate at R1. Plots were evaluated for crop response at 7 DAT and 14 DAT, and assigned a visual response score from 0% to 100% response, where 0%=no response observed to 100%=plot completely dead.
(§3) The T3 plants from the 3560.4.3.5 plants were sprayed in a glyphosate herbicide tolerance field trial. […] The untransformed control line was susceptible to any glyphosate application and was consistently rated as a 1. 3560.4.3.5 soybean T4 plants were advanced for additional glyphosate tolerance testing.

[7] = system: untransformed control line; experiment: Field glyphosate tolerance trial, control line; format: in vivo, Glycine max; details: any glyphosate application (3.36, 6.72 or 13.44 kg ae ha-1), 1 to 9 scale
Procedure: as §2, §3

3560.4.3.5 soybean [8] = experiment: Tolerance to glyphosate tank mixes with other pesticides at V2 or R2, crop response rating; details: glyphosate 3.36 kg ae ha-1, chlorpyrifos 560.4, bentazon 1120.9, imazethapyr 141.3, fomesafen 263.4, tribenuron-methyl 17.5, thifensulfuron-methyl 17.5 g ai ha-1
Procedure: The first experiments were grown in an RCB design of three replications of paired 3.7 m rows (76.2 cm row spacing), blocked by replication with randomized spray treatments within each replication. […] Visual response ratings (0% to 100%) were assigned to each plot at 7 DAT, 14 DAT, and 28 DAT. Crop response data were analyzed using the GLM and mixed model ANOVA procedures of SAS.

3560.4.3.5 soybean [9] = format: in vivo, Glycine max; details: glyphosate 1.68 kg ae ha^−1, ALS inhibitors 5.8 + 4.4 g ai ha^−1
Procedure: The second set of tolerance experiments were designed to measure yield potential of 3560.4.3.5 soybean after application of common field use rates of glyphosate and/or ALS inhibitor herbicides. […] One experiment was grown at field A and two experiments were grown at field B and C (which were separated by planting date and physical distance of field locations.) In addition, the two fields had different environmental influence; one field experienced drought stress through the spring and early summer, the other was well irrigated throughout the growing season. Treatments were randomized within each of the replications and sprayed at the VC, V2, R2, or R5 growth stages. Treatments consisted of 1.68 kg ai ha^−1 glyphosate, 5.8 g ai ha^−1 chlorimuron ethyl+4.4 g ai ha^−1 thifensulfuron methyl, and 1.68 kg ai ha^−1 glyphosate+5.8 g ai ha^−1 chlorimuron ethyl+4.4 g ai ha^−1 thifensulfuron methyl. […] Plots were harvested and yield was calculated for each plot.
The second set of experiments conducted with event 3560.4.3.5 were designed to measure yield potential after application of different herbicides at field use rates that would be commonly utilized for soybean production. Across the glyphosate, ALS inhibitor, and glyphosate plus ALS inhibitor treatments there was minimal (10% or less) to essentially no response at 7, 14, and 28 DAT (Table 20). When yield data was collected, there were no significant yield differences detected for any of the herbicide treatments applied at different the growth stages (Table 20). In addition, the replications that received herbicide treatments were not statistically different from the unsprayed control replications for yield (Table 20). Based upon multiple year herbicide tolerance trials, it can be concluded that event 3560.4.3.5 had excellent tolerance to field use rates of glyphosate, ALS inhibitor, and glyphosate plus ALS inhibitor herbicides. In addition, yield potential was not affected when event 3560.4.3.5 was sprayed with glyphosate, ALS inhibitor, and glyphosate plus ALS inhibitor chemistries at different vegetative and reproductive growth stages.

SMILES: COc1nc(C)nc(NC(=O)NS(=O)(=O)c2ccccc2Cl)n1 [chlorsulfuron, 2-chloro-N-[[(4-methoxy-6-methyl-1,3,5-triazin-2-yl)amino]-carbonyl]benzenesulfonamide]
- seedling response in chlorsulfuron solution [1]: germinated and grew normally
- seedling response in chlorsulfuron solution [2]: created hooked unifoliolate leaves that did not expand and develop any further

SMILES: COC(=O)c1sccc1S(=O)(=O)NC(=O)Nc1nc(C)nc(OC)n1 [Thifensulfuron methyl, methyl 3-[[[[(4-methoxy-6-methyl-1,3,5-triazin-2-yl)amino]carbonyl]amino]sulfonyl]-2-thiophenecarboxylate]
- average visual response rating ([3]; T1 tolerant plants, thifensulfuron methyl 60.0 g ai ha-1 + NIS + AMS at V3, 10 days after application, scale to 9 = no response): 7.0
- average visual response rating, first score of sequential application ([3]; T1 tolerant plants, thifensulfuron methyl 70 g ai ha-1 + NIS + AMS at V3, 10 days after the V3 application, scale to 9 = no response): 8.0

SMILES: COC(=O)c1ccccc1S(=O)(=O)NC(=O)Nc1nc(C)nc(OC)n1 [Metsulfuron methyl, methyl 2-[[[[(4-methoxy-6-methyl-1,3,5-triazin-2-yl)amino]carbonyl]amino]sulfonyl]benzoate]
- crop response of 3560.4.3.5 soybean compared to STS, in words (3560.4.3.5 soybean [4]): significantly lower crop response compared to STS®

SMILES: O=C(O)CNCP(=O)(O)O [Glyphosate]
- average visual response rating ([3]; T0 plants, glyphosate 1.68 kg ae ha-1 + NIS + AMS, 10 days after application, greenhouse, scale 0 = dead plant to 9 = no response detected): 7.0
- average visual response rating ([3]; T0 plants, glyphosate 3.36 kg ae ha-1 + NIS + AMS, 10 days after application, greenhouse, scale 0 = dead plant to 9 = no response detected): 6.5
- average visual response rating, second score of sequential application ([3]; T1 tolerant plants, 70 g ai ha-1 thifensulfuron methyl at V3 followed by glyphosate 1.68 kg ae ha-1 at V6, 10 days after the V6 glyphosate application, scale to 9 = no response): 8.0
- average visual response rating ([3]; T1 tolerant plants, glyphosate 1.68 kg ae ha-1 + NIS + AMS at V3, 10 days after application, scale to 9 = no response): 7.0
- visual rating [5]: 1
- LSMean visual rating (3560.4.3.5 soybean [6]; T3 plants, glyphosate 3.36 kg ae ha-1, 7 DAT, 1 = completely dead plot to 9 = no response): 8.0
- LSMean visual rating (3560.4.3.5 soybean [6]; T3 plants, glyphosate 6.72 kg ae ha-1, 7 DAT, 1 = completely dead plot to 9 = no response): 6.7
- LSMean visual rating (3560.4.3.5 soybean [6]; T3 plants, glyphosate 13.44 kg ae ha-1, 7 DAT, 1 = completely dead plot to 9 = no response): 5.7
- LSMean visual rating (3560.4.3.5 soybean [6]; T4 plants, glyphosate 6.72 kg ae ha-1 at V3, 7 DAT, 1 to 9 scale): 6.8
- LSMean visual rating (3560.4.3.5 soybean [6]; T4 plants, glyphosate 6.72 kg ae ha-1 at V3, 14 DAT, 1 to 9 scale): 7.8
- LSMean visual rating (3560.4.3.5 soybean [6]; T4 plants, sequential glyphosate 6.72 kg ae ha-1 at V3 then 6.72 at R1, 7 DAT after the R1 application, 1 to 9 scale): 7.8
- LSMean visual rating (3560.4.3.5 soybean [6]; T4 plants, sequential glyphosate 6.72 kg ae ha-1 at V3 then 6.72 at R1, 14 DAT after the R1 application, 1 to 9 scale): 7.7
- visual rating [7]: 1
- LSMean crop response rating, 7 DAT Average (3560.4.3.5 soybean [8]; applied at R2): 1.7%
- LSMean crop response rating, 14 DAT Average (3560.4.3.5 soybean [8]; applied at R2): 0.6%
- LSMean crop response rating, 28 DAT Average (3560.4.3.5 soybean [8]; applied at R2): 0.0%
- LSMean crop response rating, 14 DAT Average (3560.4.3.5 soybean [8]; applied at V2): 3.3%
- LSMean crop response rating, 28 DAT Average (3560.4.3.5 soybean [8]; applied at V2): 0.6%
- LSMean crop response rating, 7 DAT Average (3560.4.3.5 soybean [8]; applied at V2, + NIS + AMS, 0% = no response, 100% = plot completely dead): 3.9%
- crop response rating 7 DAT (LSMean) (3560.4.3.5 soybean [9]; Application Stage R2): 2.0%
- crop response rating 14 DAT (LSMean) (3560.4.3.5 soybean [9]; Application Stage R2): 0.6%
- crop response rating 28 DAT (LSMean) (3560.4.3.5 soybean [9]; Application Stage R2): 0.0%
- crop response rating 7 DAT (LSMean) (3560.4.3.5 soybean [9]; Application Stage R5): 0.3%
- crop response rating 14 DAT (LSMean) (3560.4.3.5 soybean [9]; Application Stage R5): 0.3%
- crop response rating 28 DAT (LSMean) (3560.4.3.5 soybean [9]; Application Stage R5): 0.0%
- crop response rating 7 DAT (LSMean) (3560.4.3.5 soybean [9]; Application Stage V2): 5.3%
- crop response rating 14 DAT (LSMean) (3560.4.3.5 soybean [9]; Application Stage V2): 2.8%
- crop response rating 28 DAT (LSMean) (3560.4.3.5 soybean [9]; Application Stage V2): 0.6%
- crop response rating 7 DAT (LSMean) (3560.4.3.5 soybean [9]; Application Stage VC): 1.6%
- crop response rating 14 DAT (LSMean) (3560.4.3.5 soybean [9]; Application Stage VC): 0.8%
- crop response rating 28 DAT (LSMean) (3560.4.3.5 soybean [9]; Application Stage VC): 0.6%

SMILES: CCS(=O)(=O)c1cccnc1S(=O)(=O)NC(=O)Nc1nc(OC)cc(OC)n1 [Rimsulfuron, N-[[(4,6-dimethoxy-2-pyrimidinyl)amino]carbonyl]-3-(ethylsulfonyl)-2-pyridinesulfonamide]
- crop response of 3560.4.3.5 soybean compared to STS, in words (3560.4.3.5 soybean [4]): significantly lower crop response compared to STS®
